Measurements reported in ChEMBL document CHEMBL1201862, “PubChem BioAssay data set” (2004).
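Method: 48-hour compound exposure of cells in 96-well plates, five concentrations, linear interpolation of endpoints. GI50 is the concentration that inhibits growth by half.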 Active and inactive are the calls of the source. Rule as the data show it: active = GI50 up to about 1.1 µM and inactive = higher.

What was measured:
Experiment in all cases: growth of human tumour cells (NCI), 48 h
786-0 = system: 786-0
A498 = system: A498
A549 = system: A549
ACHN = system: ACHN
BT-549 = system: BT-549
CCRF-CEM = system: CCRF-CEM
COLO 205 = system: COLO 205
DU-145 = system: DU-145
EKVX = system: EKVX
HCC 2998 = system: HCC 2998
HCT-116 = system: HCT-116
HCT-15 = system: HCT-15
HL-60 = system: HL-60
HOP-62 = system: HOP-62
HOP-92 = system: HOP-92
HT-29 = system: HT-29
Hs-578T = system: Hs-578T
IGROV-1 = system: IGROV-1
K562 = system: K562
KM12 = system: KM12
LOX IMVI = system: LOX IMVI
M14 = system: M14
MCF7 = system: MCF7
MDA-MB-231 = system: MDA-MB-231
MDA-MB-435 = system: MDA-MB-435
MDA-N = system: MDA-N
MOLT-4 = system: MOLT-4
Malme-3M = system: Malme-3M
NCI-H226 = system: NCI-H226
NCI-H23 = system: NCI-H23
NCI-H460 = system: NCI-H460
NCI-H522 = system: NCI-H522
NCI/ADR-RES = system: NCI/ADR-RES
OVCAR-3 = system: OVCAR-3
OVCAR-5 = system: OVCAR-5
OVCAR-8 = system: OVCAR-8
PC-3 = system: PC-3
RPMI-8226 = system: RPMI-8226
RXF 393 = system: RXF 393
SF-268 = system: SF-268
SF-295 = system: SF-295
SF-539 = system: SF-539
SK-MEL-2 = system: SK-MEL-2
SK-MEL-5 = system: SK-MEL-5
SK-OV-3 = system: SK-OV-3
SN12C = system: SN12C
SNB-19 = system: SNB-19
SNB-75 = system: SNB-75
SR = system: SR
SW-620 = system: SW-620
T47D = system: T47D
TK-10 = system: TK-10
U-251 = system: U-251
UACC-257 = system: UACC-257
UACC-62 = system: UACC-62
UO-31 = system: UO-31
CAKI-1 = system: CAKI-1
OVCAR-4 = system: OVCAR-4
SK-MEL-28 = system: SK-MEL-28

Measured: GI50

O=c1[nH]/c(=C/c2ccc(OCc3ccccc3)cn2)c(=O)[nH]/c1=C/c1ccc(F)cc1
0.157 µM: HCT-15
active: 786-0 0.447 µM | A498 0.834 µM | CCRF-CEM 0.458 µM | COLO 205 0.55 µM | DU-145 0.931 µM | HCT-116 0.461 µM | HL-60 0.217 µM | HOP-62 0.239 µM | HOP-92 0.586 µM | HT-29 0.434 µM | Hs-578T 0.542 µM | IGROV-1 0.335 µM | K562 0.154 µM | KM12 0.344 µM | M14 0.698 µM | MCF7 0.301 µM | MDA-MB-435 0.0902 µM | MDA-N 0.069 µM | MOLT-4 0.4 µM | Malme-3M 0.759 µM | NCI-H460 0.541 µM | NCI-H522 0.41 µM | NCI/ADR-RES 0.614 µM | OVCAR-3 0.207 µM | PC-3 0.632 µM | RPMI-8226 0.194 µM | RXF 393 0.243 µM | SF-295 0.33 µM | SF-539 0.923 µM | SK-MEL-5 0.366 µM | SK-OV-3 0.794 µM | SN12C 0.785 µM | SNB-75 0.409 µM | SR 0.0815 µM | SW-620 0.416 µM | U-251 1.05 µM | UACC-257 0.512 µM | UACC-62 0.938 µM | UO-31 0.498 µM
inactive: A549 1.8 µM | ACHN 1.72 µM | BT-549 4.97 µM | EKVX 3.49 µM | HCC 2998 1.42 µM | LOX IMVI 1.62 µM | MDA-MB-231 8.13 µM | NCI-H226 2.22 µM | NCI-H23 2.89 µM | OVCAR-5 > 33.3 µM | OVCAR-8 3.74 µM | SF-268 1.73 µM | SK-MEL-2 7.35 µM | SNB-19 2.3 µM | T47D 1.42 µM | TK-10 4.36 µM

CCc1nc(N)nc(N)c1-c1ccc(N2CCOCC2)c(N=[N+]=[N-])c1
inactive: 786-0 57.3 µM | A498 > 92 µM | A549 21.2 µM | ACHN 46 µM | BT-549 > 78.2 µM | CAKI-1 62.2 µM | CCRF-CEM 53.8 µM | COLO 205 79.6 µM | DU-145 > 82.8 µM | EKVX 66.7 µM | HCC 2998 47.9 µM | HCT-116 18.4 µM | HL-60 > 28.2 µM | HOP-62 > 100 µM | HOP-92 78.3 µM | HT-29 31.8 µM | Hs-578T > 100 µM | IGROV-1 28.2 µM | K562 8.79 µM | KM12 70.5 µM | LOX IMVI 38.7 µM | M14 54.3 µM | MCF7 71.3 µM | MDA-MB-231 > 100 µM | MDA-MB-435 55.1 µM | MDA-N 57.1 µM | MOLT-4 64.3 µM | NCI-H226 98.2 µM | NCI-H23 37.2 µM | NCI-H460 8.85 µM | NCI-H522 20.9 µM | NCI/ADR-RES > 100 µM | OVCAR-3 77.6 µM | OVCAR-4 70.6 µM | OVCAR-5 > 100 µM | OVCAR-8 61.7 µM | PC-3 42.6 µM | RPMI-8226 > 89.5 µM | RXF 393 > 83.2 µM | SF-268 44.7 µM | SF-295 63 µM | SF-539 75.5 µM | SK-MEL-28 > 100 µM | SK-MEL-2 > 100 µM | SK-MEL-5 37.2 µM | SK-OV-3 > 100 µM | SN12C > 80.5 µM | SNB-19 38.3 µM | SNB-75 > 92 µM | SR 36.9 µM | SW-620 41.9 µM | T47D > 92.7 µM | TK-10 > 100 µM | U-251 67 µM | UACC-257 > 100 µM | UACC-62 47 µM | UO-31 > 100 µM
20.3 µM: HCT-15
